Test results reported in patent US9428459B2, “Difluoromethyl-nicotinic- tetrahydronaphtyl carboxamides” (BAYER CROPSCIENCE AG, priority 2012, dated 2016).

Legend:
[1] = log P by HPLC on reversed phase columns (EEC directive 79/831 Annex V.A8); type: physicochemical; conditions: method [a]: LC-MS at pH 2.7, 0.1% formic acid in water / acetonitrile, gradient 10% to 95% acetonitrile; for chromatographic logP: reversed phase HPLC columns
Procedure: Measurement of log P values was performed according EEC directive 79/831 Annex V.A8 by HPLC (High Performance Liquid Chromatography) on reversed phase columns with the following methods: ^[a]Measurement of LC-MS was done at pH 2.7 with 0.1% formic acid in water and with acetonitrile (contains 0.1% formic acid) as eluent with a linear gradient from 10% acetonitrile to 95% acetonitrile. Calibration was done with not branched alkan2-ones (with 3 to 16 carbon atoms) with known log P-values (measurement of log P values using retention times with linear interpolation between successive alkanones). lambda-maX-values were determined using UV-spectra from 200 nm to 400 nm and the peak values of the chromatographic signals.

Alternaria brassicae = assay: In vivo preventive test on Alternaria brassicae (leaf spot on radish); conditions: dose 500 ppm, radish plants, preventive spray, grading 6 days after contamination
Procedure: Radish plants (“Pernod Clair” variety), sown in starter cups on a 50/50 peat soil-pozzolana substrate and grown at 17° C., are treated at the cotyledon stage by spraying with the active ingredient prepared as described above. Plants, used as controls, are treated with the mixture of acetone/tween/DMSO/water not containing the active material. After 24 hours, the plants are contaminated by spraying the cotyledons with an aqueous suspension of Alternaria brassicae spores (50 000 spores per ml). The spores are collected from a 15-day-old culture. The contaminated radish plants are incubated at 20° C. and at 100% relative humidity. Grading (% of efficacy) is carried out 6 days after the contamination, in comparison with the control plants.

Pyrenophora teres = assay: In vivo preventive test on Pyrenophora teres (net blotch on barley); conditions: dose 500 ppm, barley plants, preventive spray, grading 14 days after contamination
Procedure: Barley plants (“Plaisant” variety), sown in starter cups on a 50/50 peat soil-pozzolana substrate and grown at 22° C., are treated at the 1-leaf stage (10 cm height) by spraying with the active ingredient prepared as described above. Plants, used as controls, are treated with the mixture of acetone/tween/DMSO/water not containing the active material. After 24 hours, the plants are contaminated by spraying the leaves with an aqueous suspension of Pyrenophora teres spores (12 000 spores per ml). The spores are collected from a 12-day-old culture. The contaminated barley plants are incubated for 48 hours at 20° C. and at 100% relative humidity, and then for 12 days at 20° C. at 70-80% relative humidity. Grading (% of efficacy) is carried out 14 days after the contamination, in comparison with the control plants.

Puccinia recondita = assay: In vivo preventive test on Puccinia recondita (brown rust on wheat); conditions: wheat plants, preventive spray, grading 12 days after contamination
Procedure: Wheat plants (“Scipion” variety), sown in starter cups on a 50/50 peat soil-pozzolana substrate and grown at 22° C., are treated at the 1-leaf stage (10 cm height) by spraying with the active ingredient prepared as described above. Plants, used as controls, are treated with the mixture of acetone/tween/DMSO/water not containing the active material. After 24 hours, the plants are contaminated by spraying the leaves with an aqueous suspension of Puccinia recondita spores (100 000 spores per ml). The spores are collected from an infected plant and are suspended in water containing 2.5 ml/l of Tween 80 at 10%. The contaminated wheat plants are incubated for 24 hours at 20° C. and at 100% relative humidity, and then for 10 days at 20° C. and at 70-80% relative humidity. Grading (% of efficacy) is carried out 12 days after the contamination, in comparison with the control plants.

Uromyces appendiculatus = assay: In vivo preventive test on Uromyces appendiculatus (bean rust); conditions: dose 500 ppm, bean plants, preventive spray, grading 11 days after contamination
Procedure: The active ingredients tested are prepared by homogenization in a mixture of acetone/tween/DMSO, and then diluted with water to obtain the desired active material concentration.
Bean plants (“Saxa” variety), sown in starter cups on a 50/50 peat soil-pozzolana substrate and grown at 24° C., are treated at the 2-leaf stage (9 cm height) by spraying with the active ingredient prepared as described above. Plants, used as controls, are treated with the mixture of acetone/tween/DMSO/water not containing the active material.
After 24 hours, the plants are contaminated by spraying the leaves with an aqueous suspension of Uromyces appendiculatus spores (150 000 spores per ml). The spores are collected from infected plants and are suspended in water containing 2.5 ml/l of Tween 80 at 10%. The contaminated bean plants are incubated for 24 hours at 20° C. and at 100% relative humidity, and then for 10 days at 20° C. and at 70-80% relative humidity.
Grading (% of efficacy) is carried out 11 days after the contamination, in comparison with the control plants.

Botrytis cinerea = assay: In vivo preventive test on Botrytis cinerea (grey mould); conditions: gherkin plants, preventive spray, grading 4 to 5 days after contamination
Procedure: Gherkin plants (“Vert petit de Paris” variety), sown in starter cups on a 50/50 peat soil-pozzolana substrate and grown at 24° C., are treated at the Z11 cotyledon stage by spraying with the active ingredient prepared as described above. Plants, used as controls, are treated with the mixture of acetone/tween/DMSO/water not containing the active material. After 24 hours, the plants are contaminated by spraying the cotyledons with an aqueous suspension of cryopreserved Botrytis cinerea spores (50 000 spores per ml). The spores are suspended in a nutrient solution composed of 10 g/L of PDB, 50 g/L of D-Fructose, 2 g/L of NH4NO3 and 1 g/L of KH2PO4. The contaminated gherkin plants are incubated at 17° C. and at 90% relative humidity. Grading (% of efficacy) is carried out 4 to 5 days after the contamination, in comparison with the control plants.

Sphaerotheca fuliginea = assay: In vivo preventive test on Sphaerotheca fuliginea (powdery mildew on cucurbits); conditions: dose 100 ppm, gherkin plants, preventive spray, grading 12 days after contamination
Procedure: Gherkin plants (“Vert petit de Paris” variety), sown in starter cups on a 50/50 peat soil-pozzolana substrate and grown at 24° C., are treated at the Z11 cotyledon stage by spraying with the active ingredient prepared as described above. Plants, used as controls, are treated with the mixture of acetone/tween/DMSO/water not containing the active material. After 24 hours, the plants are contaminated by spraying the cotyledons with an aqueous suspension of Sphaerotheca fuliginea spores (100 000 spores per ml). The spores are collected from infected plants. The contaminated gherkin plants are incubated at about 20° C. and at 70-80% relative humidity. Grading (% of efficacy) is carried out 12 days after the contamination, in comparison with the control plants.

Septoria tritici = assay: In vivo preventive test on Septoria tritici (leaf spot on wheat); conditions: dose 100 ppm, wheat plants, preventive spray, grading 24 days after contamination
Procedure: Wheat plants (“Scipion” variety), sown in starter cups on a 50/50 peat soil-pozzolana substrate and grown at 22° C., are treated at the 1-leaf stage (10 cm height) by spraying with the active ingredient prepared as described above. Plants, used as controls, are treated with the mixture of acetone/tween/DMSO/water not containing the active material. After 24 hours, the plants are contaminated by spraying the leaves with an aqueous suspension of cryopreserved Septoria tritici spores (500 000 spores per ml). The contaminated wheat plants are incubated for 72 hours at 18° C. and at 100% relative humidity, and then for 21 days at 90% relative humidity. Grading (% of efficacy) is carried out 24 days after the contamination, in comparison with the control plants.

Compound	logP [1]	further results
CC1(C)CCc2cccc(NC(=O)c3cccnc3C(F)F)c2C1 [Example 1, 2-(difluoromethyl)-N-(7,7-dimethyl-5,6,7,8-tetrahydronaphthalen-1-yl)nicotinamide]	–	chromatographic logP [1]: 3.23
Cc1cnc(C(F)F)c(C(=O)Nc2cccc3c2CCC(C)(C)C3)c1 [Example 7, 2-(difluoromethyl)-N-(6,6-dimethyl-5,6,7,8-tetrahydronaphthalen-1-yl)-5-methylnicotinamide]	–	chromatographic logP [1]: 3.52
CON=C1CCCc2c(NC(=O)c3cc(C)cnc3C(F)F)cccc21 [Example 8]	2.75^[a]	–
CON=C1CCCc2c(NC(=O)c3cccnc3C(F)F)cccc21 [Example 9]	2.49^[a]	biological efficacy (Alternaria brassicae): ≥ 90%; biological efficacy (Puccinia recondita; dose 500 ppm): ≥ 70%; biological efficacy (Uromyces appendiculatus): ≥ 70%; biological efficacy (Botrytis cinerea; dose 500 ppm): ≥ 70%
Cc1cnc(C(F)F)c(C(=O)Nc2ccc(F)c3c2CCCC3(C)C)c1 [Example 10]	3.57^[a]	–
CC1(C)CCCc2c(NC(=O)c3ccc(Cl)nc3C(F)F)ccc(F)c21 [Example 11]	3.94^[a]	–
CCON=C1CCCc2c(NC(=O)c3cc(C)cnc3C(F)F)cccc21 [Example 13]	3.19^[a]	–
CC1(C)CCCc2c(NC(=S)c3cccnc3C(F)F)ccc(F)c21 [Example 15]	3.79^[a]	–
CCON=C1CCCc2c(NC(=O)c3cccnc3C(F)F)cccc21 [Example 16]	2.90^[a]	–
Cc1cnc(C(F)F)c(C(=S)Nc2cccc3c2CCC(C)(C)C3)c1 [Example 17, 2-(difluoromethyl)-N-(6,6-dimethyl-5,6,7,8-tetrahydronaphthalen-1-yl)-5-methylpyridine-3-carbothioamide]	–	chromatographic logP [1]: 3.94
CC(C)C1CCCc2c(NC(=O)c3ccc(Cl)nc3C(F)F)cccc21 (stereo not shown) [Example 19]	4.31^[a]	biological efficacy (Puccinia recondita; dose 100 ppm): ≥ 70%; biological efficacy (Septoria tritici): ≥ 70%

More lines, main results first:

logP [1]	Compound	further results
3.24^[a]	CC1CCc2c(NC(=O)c3cccnc3C(F)F)cccc2C1C (mixture of isomers) [Example 6]	–
3.55^[a]	CC1c2cccc(NC(=O)c3cccnc3C(F)F)c2CCC1(C)C (stereo not shown) [Example 2]	–
3.37^[a]	CC1CCC(C)(C)c2cccc(NC(=O)c3cccnc3C(F)F)c21 (stereo not shown) [Example 3]	–
3.33^[a]	C=C1c2cccc(NC(=O)c3cccnc3C(F)F)c2CCC1(C)C [Example 4]	biological efficacy (Alternaria brassicae): ≥ 70%
2.28^[a]	CC1(C)CCc2c(NC(=O)c3cccnc3C(F)F)cccc2C1=O [Example 5]	biological efficacy (Pyrenophora teres): ≥ 70%
3.29^[a]	CC1(C)CCCc2c(NC(=O)c3cccnc3C(F)F)ccc(F)c21 [Example 12]	–
3.23^[a]	CC1(C)CCc2c(cccc2NC(=O)c2cccnc2C(F)F)C1 [Example 14]	–
3.60^[a]	CC(C)C1CCCc2c(NC(=O)c3cccnc3C(F)F)cccc21 (stereo not shown) [Example 18]	biological efficacy (Sphaerotheca fuliginea): ≥ 80%; biological efficacy (Puccinia recondita; dose 100 ppm): ≥ 90%; biological efficacy (Botrytis cinerea; dose 100 ppm): ≥ 90%
3.46^[a]	Cc1cnc(C(F)F)c(C(=O)Nc2cccc3c2CCCC3(C)C)c1 [Example 20]	–
